The target in one assay is NS3/NS4 complexes (Hepatitis C virus genotype 1a, UniProt P27958). Briefly: NS3/NS4 inhibition assay (IC50). It counts as biochemical. The settings on record: NS3/NS4 activity; 23° C., 25 μM NS4A peptide. From the text:
(§1) NS3-NS4 inhibition activity can be determined using known assay methods. For example, NS3/NS4 complexes may be formed and inhibitory concentrations of test compounds determined as described in U.S. Patent Application Publication Number 2007/0054842 paragraph numbers 1497-1509, which is incorporated herein by reference in its entirety. Similarly, hepatitis C replicon EC50 may be determined using known assay methods such as described in U.S. Patent Application Publication Number 2007/0054842 paragraph numbers 1510-1515, which is incorporated herein by reference in its entirety. Assays may be conducted at ambient temperature (23° C.) in assay buffer containing 50 mM Tris-HCl, pH 7.5, 15% glycerol, 0.6 mM Lauryldimethylamine Oxide (LDAO), 25 μM NS4A peptide, and 10 mM Dithiothreitol (DTT).

The next assay deals with hepatitis C replicon. Briefly: hepatitis C replicon EC50 assay. Type of assay: cell-based. The settings on record: Hepatitis C virus.
From the text: as §1
Background: Replicon systems follow genome replication, usually without infectious particles.

Setting [1] is: hepatitis C replicon, read-out: EC50.

Where two headings read alike, the source gives them in different places.

Chain of NS3/NS4 complexes (P27958 1027-1657, one chain of several): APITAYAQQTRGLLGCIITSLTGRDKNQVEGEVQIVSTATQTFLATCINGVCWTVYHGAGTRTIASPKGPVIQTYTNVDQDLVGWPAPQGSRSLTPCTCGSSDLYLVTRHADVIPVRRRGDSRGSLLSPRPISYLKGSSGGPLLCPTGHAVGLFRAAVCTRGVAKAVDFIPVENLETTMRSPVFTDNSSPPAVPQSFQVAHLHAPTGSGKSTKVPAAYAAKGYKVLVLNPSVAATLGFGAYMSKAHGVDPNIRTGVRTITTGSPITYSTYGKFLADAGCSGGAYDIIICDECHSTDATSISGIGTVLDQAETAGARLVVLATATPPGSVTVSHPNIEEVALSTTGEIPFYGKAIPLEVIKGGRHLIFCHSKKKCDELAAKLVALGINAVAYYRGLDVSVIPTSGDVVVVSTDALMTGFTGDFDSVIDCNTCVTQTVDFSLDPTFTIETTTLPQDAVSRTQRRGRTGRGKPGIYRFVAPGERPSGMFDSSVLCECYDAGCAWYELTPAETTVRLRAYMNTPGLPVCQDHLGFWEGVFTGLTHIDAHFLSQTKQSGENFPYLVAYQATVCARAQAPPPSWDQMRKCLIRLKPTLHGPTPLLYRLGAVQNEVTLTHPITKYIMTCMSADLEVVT

In general, IC50 refers to the concentration that inhibits the measured activity by half. In general, EC50 refers to the midpoint of the concentration-response curve. `COc1ccc2c(O[C@@H]3C[C@H]4C(=O)N[C@]5(C(=O)NS(=O)(=O)C6(C)CC6)C[C@H]5/C=C\CCCCC[C@H](Nc5ccc(F)c(OC(F)(F)F)c5)C(=O)N4C3)cc(-c3nc(C(C)C)cs3)nc2c1C` (single isomer, unassigned) [Compound 601]: the IC50 at NS3/NS4 complexes was < 10 nM. In addition, the 50% effective concentration (EC50) in the assay with hepatitis C replicon (setting [1]) was < 10 nM.
On to `COc1ccc2c(O[C@@H]3C[C@H]4C(=O)N[C@]5(C(=O)NS(=O)(=O)C6(C)CC6)C[C@H]5/C=C\CCCCC[C@H](Nc5ccc(OC(F)(F)F)c(F)c5)C(=O)N4C3)cc(-c3nc(C(C)C)cs3)nc2c1C` (single isomer, unassigned) [Compound 602], for which the half-inhibitory concentration (IC50) on NS3/NS4 complexes was < 10 nM. In addition, the EC50 in the assay on hepatitis C replicon (setting [1]) is 10 to 100 nM.
On to `COc1ccc2c(O[C@@H]3C[C@H]4C(=O)N[C@]5(C(=O)NS(=O)(=O)C6(C)CC6)C[C@H]5/C=C\CCCCC[C@H](Nc5ccc(N)cc5)C(=O)N4C3)cc(-c3nc(C(C)C)cs3)nc2c1C` [Compound 101], for which the IC50 against NS3/NS4 complexes was < 10 nM. Also, in the assay on hepatitis C replicon, the EC50 was 10 to 100 nM.
For `COc1ccc2c(O[C@@H]3C[C@H]4C(=O)N[C@]5(C(=O)NS(=O)(=O)C6(C)CC6)C[C@H]5/C=C\CCCCC[C@H](Nc5cccc(N)c5)C(=O)N4C3)cc(-c3nc(C(C)C)cs3)nc2c1C` [Compound 102] the same measures were < 10 nM and < 10 nM.
Regarding `COc1ccc2c(O[C@@H]3C[C@H]4C(=O)N[C@]5(C(=O)NS(=O)(=O)C6(C)CC6)C[C@H]5/C=C\CCCCC[C@H](Nc5cccc(C(=O)O)c5)C(=O)N4C3)cc(-c3nc(C(C)C)cs3)nc2c1C` [Compound 103], the IC50 at NS3/NS4 complexes is < 10 nM. For the same compound, the concentration for a half-maximal effect (EC50) in the assay with hepatitis C replicon (setting [1]) was < 10 nM.
For `COc1ccc2c(O[C@@H]3C[C@H]4C(=O)N[C@]5(C(=O)NS(=O)(=O)C6(C)CC6)C[C@H]5/C=C\CCCCC[C@H](Nc5cccc(C(=O)N6CCN(C)CC6)c5)C(=O)N4C3)cc(-c3nc(C(C)C)cs3)nc2c1C` [Compound 104], the half-inhibitory concentration (IC50) against NS3/NS4 complexes is < 10 nM. The EC50 with hepatitis C replicon (setting [1]) was < 10 nM.
Consider `COc1ccc2c(O[C@@H]3C[C@H]4C(=O)N[C@]5(C(=O)NS(=O)(=O)C6(C)CC6)C[C@H]5/C=C\CCCCC[C@H](Nc5cccc(C(=O)N6CCOCC6)c5)C(=O)N4C3)cc(-c3nc(C(C)C)cs3)nc2c1C` [Compound 105], for which the concentration for half-maximal inhibition (IC50) against NS3/NS4 complexes is < 10 nM. Further, the 50% effective concentration (EC50) in the assay on hepatitis C replicon (setting [1]) was < 10 nM.
Consider `COc1ccc2c(O[C@@H]3C[C@H]4C(=O)N[C@]5(C(=O)NS(=O)(=O)C6(C)CC6)C[C@H]5/C=C\CCCCC[C@H](Nc5cccc(C(=O)N6CC(C)OC(C)C6)c5)C(=O)N4C3)cc(-c3nc(C(C)C)cs3)nc2c1C` (some centres unmarked) [Compound 106], for which the IC50 against NS3/NS4 complexes is < 10 nM. Besides, the 50% effective concentration (EC50) in the assay on hepatitis C replicon (setting [1]) was < 10 nM.
`COc1ccc2c(O[C@@H]3C[C@H]4C(=O)N[C@]5(C(=O)NS(=O)(=O)C6(C)CC6)C[C@H]5/C=C\CCCCC[C@H](Nc5cccc(C(=O)N6CCNCC6)c5)C(=O)N4C3)cc(-c3nc(C(C)C)cs3)nc2c1C` [Compound 107]: the IC50 against NS3/NS4 complexes was < 10 nM. The EC50 in the assay on hepatitis C replicon (setting [1]) was < 10 nM.
Consider `CCOC(=O)N1CCN(C(=O)c2cccc(N[C@H]3CCCCC/C=C\[C@@H]4C[C@@]4(C(=O)NS(=O)(=O)C4(C)CC4)NC(=O)[C@@H]4C[C@@H](Oc5cc(-c6nc(C(C)C)cs6)nc6c(C)c(OC)ccc56)CN4C3=O)c2)CC1` [Compound 108], for which the IC50 on NS3/NS4 complexes is < 10 nM. For the same compound, in the assay on hepatitis C replicon (setting [1]), the EC50 was < 10 nM.
As to `COc1ccc2c(O[C@@H]3C[C@H]4C(=O)N[C@]5(C(=O)NS(=O)(=O)C6(C)CC6)C[C@H]5/C=C\CCCCC[C@H](Nc5cccc(C(=O)N6CCOC(C)C6)c5)C(=O)N4C3)cc(-c3nc(C(C)C)cs3)nc2c1C` (some centres unmarked) [Compound 109], the IC50 on NS3/NS4 complexes was < 10 nM. The EC50 with hepatitis C replicon (setting [1]) was < 10 nM.
`COc1ccc2c(O[C@@H]3C[C@H]4C(=O)N[C@]5(C(=O)NS(=O)(=O)C6(C)CC6)C[C@H]5/C=C\CCCCC[C@H](Nc5cccc(C(=O)N6CCN(CCN(C)C)CC6)c5)C(=O)N4C3)cc(-c3nc(C(C)C)cs3)nc2c1C` [Compound 111]: on NS3/NS4 complexes, the IC50 was < 10 nM. In addition, in the assay on hepatitis C replicon (setting [1]), the half-maximal effective concentration (EC50) is < 10 nM.
Turning to `CCN1CCN(C(=O)c2cccc(N[C@H]3CCCCC/C=C\[C@@H]4C[C@@]4(C(=O)NS(=O)(=O)C4(C)CC4)NC(=O)[C@@H]4C[C@@H](Oc5cc(-c6nc(C(C)C)cs6)nc6c(C)c(OC)ccc56)CN4C3=O)c2)CC1` [Compound 112], the IC50 against NS3/NS4 complexes is < 10 nM. Besides, the EC50 in the assay with hepatitis C replicon (setting [1]) is < 10 nM.
With `CCCN1CCN(C(=O)c2cccc(N[C@H]3CCCCC/C=C\[C@@H]4C[C@@]4(C(=O)NS(=O)(=O)C4(C)CC4)NC(=O)[C@@H]4C[C@@H](Oc5cc(-c6nc(C(C)C)cs6)nc6c(C)c(OC)ccc56)CN4C3=O)c2)CC1` [Compound 113], at NS3/NS4 complexes, the IC50 is < 10 nM. In the assay on hepatitis C replicon (setting [1]), the EC50 was < 10 nM.
As to `COc1ccc2c(O[C@@H]3C[C@H]4C(=O)N[C@]5(C(=O)NS(=O)(=O)C6(C)CC6)C[C@H]5/C=C\CCCCC[C@H](Nc5cccc(C(=O)N6CCN(C(c7ccccc7)c7ccccc7)CC6)c5)C(=O)N4C3)cc(-c3nc(C(C)C)cs3)nc2c1C` [Compound 114], on NS3/NS4 complexes, the IC50 was < 10 nM. For the same compound, the EC50 in the assay on hepatitis C replicon (setting [1]) was < 10 nM.
For the compound `COc1ccc2c(O[C@@H]3C[C@H]4C(=O)N[C@]5(C(=O)NS(=O)(=O)C6(C)CC6)C[C@H]5/C=C\CCCCC[C@H](Nc5cccc(C(=O)N6CCN(C(=O)c7ccccc7)CC6)c5)C(=O)N4C3)cc(-c3nc(C(C)C)cs3)nc2c1C` [Compound 115], the IC50 on NS3/NS4 complexes is < 10 nM. Besides, in the assay on hepatitis C replicon (setting [1]), the EC50 was < 10 nM.
For `COc1ccc2c(O[C@@H]3C[C@H]4C(=O)N[C@]5(C(=O)NS(=O)(=O)C6(C)CC6)C[C@H]5/C=C\CCCCC[C@H](Nc5cccc(C(=O)N6CCN(C(C)c7ccccc7)CC6)c5)C(=O)N4C3)cc(-c3nc(C(C)C)cs3)nc2c1C` (some centres unmarked) [Compound 116], the IC50 on NS3/NS4 complexes is < 10 nM. Besides, the 50% effective concentration (EC50) with hepatitis C replicon (setting [1]) is 10 to 100 nM.
For `COc1ccc2c(O[C@@H]3C[C@H]4C(=O)N[C@]5(C(=O)NS(=O)(=O)C6(C)CC6)C[C@H]5/C=C\CCCCC[C@H](Nc5cccc(C(=O)N6CCN(CCO)CC6)c5)C(=O)N4C3)cc(-c3nc(C(C)C)cs3)nc2c1C` [Compound 117] the same measures were < 10 nM and < 10 nM.
On to `COc1ccc2c(O[C@@H]3C[C@H]4C(=O)N[C@]5(C(=O)NS(=O)(=O)C6(C)CC6)C[C@H]5/C=C\CCCCC[C@H](Nc5cccc(C(=O)N6CCN(c7ccccc7C)CC6)c5)C(=O)N4C3)cc(-c3nc(C(C)C)cs3)nc2c1C` [Compound 118], for which the IC50 against NS3/NS4 complexes was < 10 nM. Also, the EC50 in the assay with hepatitis C replicon (setting [1]) was 10 to 100 nM.
For `COc1ccc2c(O[C@@H]3C[C@H]4C(=O)N[C@]5(C(=O)NS(=O)(=O)C6(C)CC6)C[C@H]5/C=C\CCCCC[C@H](Nc5cccc(C(=O)N6CCN(C(=O)C7CC7)CC6)c5)C(=O)N4C3)cc(-c3nc(C(C)C)cs3)nc2c1C` [Compound 119] the same measures were < 10 nM and < 10 nM.
For `COc1ccc2c(O[C@@H]3C[C@H]4C(=O)N[C@]5(C(=O)NS(=O)(=O)C6(C)CC6)C[C@H]5/C=C\CCCCC[C@H](Nc5cccc(C(=O)N6C[C@@H](C)O[C@@H](C)C6)c5)C(=O)N4C3)cc(-c3nc(C(C)C)cs3)nc2c1C` [Compound 120] the same measures were < 10 nM and < 10 nM.
For `COc1ccc2c(O[C@@H]3C[C@H]4C(=O)N[C@]5(C(=O)NS(=O)(=O)C6(C)CC6)C[C@H]5/C=C\CCCCC[C@H](Nc5cccc(C(=O)N6CCN(C(=O)c7ccco7)CC6)c5)C(=O)N4C3)cc(-c3nc(C(C)C)cs3)nc2c1C` [Compound 121] the same measures were < 10 nM and 10 to 100 nM.
`COc1ccc2c(O[C@@H]3C[C@H]4C(=O)N[C@]5(C(=O)NS(=O)(=O)C6(C)CC6)C[C@H]5/C=C\CCCCC[C@H](Nc5cccc(C(=O)N6CCOCC6Cc6ccccc6)c5)C(=O)N4C3)cc(-c3nc(C(C)C)cs3)nc2c1C` (some centres unmarked) [Compound 122]: at NS3/NS4 complexes, the IC50 was < 10 nM. Also, the concentration for a half-maximal effect (EC50) in the assay on hepatitis C replicon (setting [1]) lay in the range of 10 to 100 nM.
In the case of `COc1ccc2c(O[C@@H]3C[C@H]4C(=O)N[C@]5(C(=O)NS(=O)(=O)C6(C)CC6)C[C@H]5/C=C\CCCCC[C@H](Nc5cccc(C(=O)N6CCN(c7ccc(C)cc7)CC6)c5)C(=O)N4C3)cc(-c3nc(C(C)C)cs3)nc2c1C` [Compound 123], the 50% inhibitory concentration (IC50) against NS3/NS4 complexes was < 10 nM. In the assay on hepatitis C replicon (setting [1]), the EC50 lay within 10 to 100 nM.
For `COc1ccc2c(O[C@@H]3C[C@H]4C(=O)N[C@]5(C(=O)NS(=O)(=O)C6(C)CC6)C[C@H]5/C=C\CCCCC[C@H](Nc5cccc(C(=O)N6CCN(c7cccc(C(F)(F)F)c7)CC6)c5)C(=O)N4C3)cc(-c3nc(C(C)C)cs3)nc2c1C` [Compound 124] the same measures were < 10 nM and 10 to 100 nM.
Turning to `COc1ccc2c(O[C@@H]3C[C@H]4C(=O)N[C@]5(C(=O)NS(=O)(=O)C6(C)CC6)C[C@H]5/C=C\CCCCC[C@H](Nc5cccc(C(=O)N6CCN(c7ncccn7)CC6)c5)C(=O)N4C3)cc(-c3nc(C(C)C)cs3)nc2c1C` [Compound 125], on NS3/NS4 complexes, the concentration for half-maximal inhibition (IC50) was < 10 nM. Further, in the assay on hepatitis C replicon (setting [1]), the EC50 is < 10 nM.
As to `COc1ccc2c(O[C@@H]3C[C@H]4C(=O)N[C@]5(C(=O)NS(=O)(=O)C6(C)CC6)C[C@H]5/C=C\CCCCC[C@H](Nc5cccc(C(=O)N6CCN(c7ccccn7)CC6)c5)C(=O)N4C3)cc(-c3nc(C(C)C)cs3)nc2c1C` [Compound 126], on NS3/NS4 complexes, the IC50 was < 10 nM. In addition, the EC50 in the assay on hepatitis C replicon (setting [1]) was < 10 nM.
`CC(C)c1csc(-c2cccc3c2nc(O[C@@H]2C[C@H]4C(=O)N[C@]5(C(=O)NS(=O)(=O)C6(C)CC6)C[C@H]5/C=C\CCCCC[C@H](NC(=O)OC5C[C@@H]6C[C@@H]6C5)C(=O)N4C2)n3C(C)C)n1` (some centres unmarked) [Compound 1411]: the 50% effective concentration (EC50) with hepatitis C replicon (setting [1]) was in the range of 10 to 100 nM.
For `CC(C)n1c(O[C@@H]2C[C@H]3C(=O)N[C@]4(C(=O)NS(=O)(=O)N(C)C)C[C@H]4/C=C\CCCCC[C@H](NC(=O)OC(C)(C)C)C(=O)N3C2)nc2c(-c3cccnc3)cccc21` [Compound 1738], the half-maximal effective concentration (EC50) with hepatitis C replicon (setting [1]) is < 10 nM.

The record behind these values is patent US20110081315A1, “NOVEL MACROCYCLIC INHIBITORS OF HEPATITIS C VIRUS REPLICATION” (INTERMUNE, INC., priority 2009, published 2011).
